Measured values: US11013722B2, “Therapeutic agent for dyslipidemia” (KOWA COMPANY, LTD., priority 2012, dated 2021)

Assays:
[1] = test system: High-Cholesterol Diet-Fed Rats; experiment: Example 2: combined effect of compound A and ezetimibe, plasma TC and lipoprotein cholesterol; type: in vivo, SD rats
Protocol: The synergistic effect was determined by using Burgi's formula (in a case where a level lower than that in the control group is indicated in a drug administration group, that is, when the evaluation of an agent to the TC, VLDL-C, or LDL-C is performed, if the relative level in the combined group is smaller than the value of the product of the relative level of single agent A and the relative level of single agent B, the synergistic effect exists. In a case where a level higher than that in the control group is indicated in a drug administration group, that is, when the evaluation of an agent to the HDL-C is performed, if the relative level in the combined group is larger than the value of the product of the relative level of single agent A and the relative level of single agent B, the synergistic effect exists).
(§1) Group 2: Compound A 0.1 mg/kg
Group 3: Ezetimibe 0.01 mg/kg […]
Group 5: Ezetimibe 0.1 mg/kg […]
(§2) The results were shown as the mean±standard deviation.

[2] = test system: High-Cholesterol Diet-Fed Rats; experiment: Example 1: combined effect of compound A and ezetimibe, plasma HDL-C; type: in vivo, SD rats; details: for HDL-C Ave.: plasma, oral once a day, one week; for HDL-C Rate of Change: vs control
Protocol: The synergistic effect was determined by using Burgi's formula (if the relative level in the combined group is larger than the value of the product of the relative level of single agent A and the relative level of single agent B, the synergistic effect is positive).
as §1
Group 3: Ezetimibe 0.003 mg/kg
Group 4: Compound A 0.1 mg/kg and ezetimibe 0.003 mg/kg
as §2

Row | Compound | HDL-C Relative Level (to Control) ([1]; Compound A 0.1 mg/kg alone) | LDL-C Relative Level (to Control) ([1]; Compound A 0.1 mg/kg alone) | TC Relative Level (to Control) ([1]; Compound A 0.1 mg/kg alone) | VLDL-C Relative Level (to Control) ([1]; Compound A 0.1 mg/kg alone) | Effect on HDL-C level ([2]; Compound A 0.1 mg/kg alone) | HDL-C relative level to the control group ([2]; Compound A 0.1 mg/kg alone) | HDL-C Ave. ([2]; Compound A 0.1 mg/kg alone) | HDL-C Rate of Change ([2]; Compound A 0.1 mg/kg alone) [%] | HDL-C Relative Level (to Control) ([1]; Ezetimibe 0.01 mg/kg alone) | LDL-C Relative Level (to Control) ([1]; Ezetimibe 0.01 mg/kg alone) | TC Relative Level (to Control) ([1]; Ezetimibe 0.01 mg/kg alone) | VLDL-C Relative Level (to Control) ([1]; Ezetimibe 0.01 mg/kg alone) | HDL-C Relative Level (to Control) ([1]; Ezetimibe 0.1 mg/kg alone) | LDL-C Relative Level (to Control) ([1]; Ezetimibe 0.1 mg/kg alone) | TC Relative Level (to Control) ([1]; Ezetimibe 0.1 mg/kg alone) | VLDL-C Relative Level (to Control) ([1]; Ezetimibe 0.1 mg/kg alone) | Effect on HDL-C level ([2]; Ezetimibe 0.003 mg/kg alone) | HDL-C relative level to the control group ([2]; Ezetimibe 0.003 mg/kg alone) | HDL-C Ave. ([2]; Ezetimibe 0.003 mg/kg alone) | HDL-C Rate of Change ([2]; Ezetimibe 0.003 mg/kg alone) [%]
1 | CC[C@@H](Oc1cccc(CN(CCCOc2ccc(OC)cc2)c2nc3ccccc3o2)c1)C(=O)O [Compound A, (R)-2-[3-[[N-(benzoxazol-2-yl)-N-3-(4-methoxyphenoxy)propyl]aminomethyl]phenoxy]butyric acid] | 1.021 | 0.971 | 0.956 | 0.827 | apparent effects were not recognized | 1.010 | 24.3 | 1.0 |  |  |  |  |  |  |  |  |  |  |  | 
2 | O=C1[C@H](CC[C@H](O)c2ccc(F)cc2)[C@@H](c2ccc(O)cc2)N1c1ccc(F)cc1 [Ezetimibe, (3R,4S)-1-(4-fluorophenyl)-3-{(3S)-3-(4-fluorophenyl)-3-hydroxypropyl}-4-(4-hydroxyphenyl)azetidin-2-one] |  |  |  |  |  |  |  |  | 0.910 | 0.955 | 0.898 | 0.719 | 1.100 | 0.720 | 0.555 | 0.262 | apparent effects were not recognized | 1.022 | 24.6 | 2.2
